Source: PubChem BioAssay AID248 (DTP/NCI, 2004)
Where “and” joins values, the source holds several entries; their conditions need not be identical. Equal entries are not always repeated. Toxic doses and inconclusive results are not listed. Rule as the data show it: active = T/C of 150% or more; inactive = T/C below 125%.

System: L1210 leukemia ip in BDF1 mice, survival T/C
Experiment: NCI In Vivo Anticancer Drug Screen. Data for tumor model L1210 Leukemia (intraperitoneal) in B6D2F1 (BDF1) mice
Conditions: endpoint: mean survival time, higher = longer survival
How it was run: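 Read-out is survival time, reported as the treated-group measurement over the vehicle-control measurement.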

[1] = dose: 100.0 mg/kg/injection, schedule: Q01DX009 (ip), vehicle: Klucel (hydroxypropylcellulose) (HPC)
[2] = dose: 100.0 mg/kg/injection, schedule: Q04DX003 (ip), vehicle: Klucel (hydroxypropylcellulose) (HPC)
[3] = dose: 200.0 mg/kg/injection, schedule: Q01DX009 (ip), vehicle: Klucel (hydroxypropylcellulose) (HPC)
[4] = dose: 200.0 mg/kg/injection, schedule: Q04DX003 (ip), vehicle: Klucel (hydroxypropylcellulose) (HPC)
[5] = dose: 400.0 mg/kg/injection, schedule: Q01DX009 (ip), vehicle: Klucel (hydroxypropylcellulose) (HPC)
[6] = dose: 400.0 mg/kg/injection, schedule: Q04DX003 (ip), vehicle: Klucel (hydroxypropylcellulose) (HPC)
[7] = dose: 75.0 mg/kg/injection, schedule: Q01DX001 (ip), vehicle: saline
[8] = dose: 150.0 mg/kg/injection, schedule: Q01DX001 (ip), vehicle: saline
[9] = dose: 300.0 mg/kg/injection, schedule: Q01DX001 (ip), vehicle: saline
[10] = dose: 100.0 mg/kg/injection, schedule: Q04DX002 (ip), vehicle: saline with Tween-80
[11] = dose: 200.0 mg/kg/injection, schedule: Q04DX002 (ip), vehicle: saline with Tween-80
[12] = dose: 400.0 mg/kg/injection, schedule: Q04DX002 (ip), vehicle: saline with Tween-80
[13] = dose: 100.0 mg/kg/injection, schedule: Q04DX003 (ip), vehicle: saline with Tween-80
[14] = dose: 400.0 mg/kg/injection, schedule: Q04DX003 (ip), vehicle: saline with Tween-80
[15] = dose: 100.0 mg/kg/injection, schedule: Q01DX009 (ip), vehicle: saline with Tween-80
[16] = dose: 200.0 mg/kg/injection, schedule: Q01DX009 (ip), vehicle: saline with Tween-80
[17] = dose: 400.0 mg/kg/injection, schedule: Q01DX009 (ip), vehicle: saline with Tween-80
[18] = dose: 100.0 mg/kg/injection, schedule: Q01DX001 (ip), vehicle: carboxymethylcellulose (CMC)
[19] = dose: 200.0 mg/kg/injection, schedule: Q01DX001 (ip), vehicle: carboxymethylcellulose (CMC)

Measured: T/C

CC1(C)C2=CCCC2CC/C1=N/NC(N)=O (configuration not stated)
inactive: dose: 25.0 mg/kg/injection, schedule: Q04DX002 (ip), vehicle: Klucel (hydroxypropylcellulose) (HPC) 107 % of control | dose: 50.0 mg/kg/injection, schedule: Q04DX002 (ip), vehicle: Klucel (hydroxypropylcellulose) (HPC) 93 % of control | dose: 100.0 mg/kg/injection, schedule: Q04DX002 (ip), vehicle: Klucel (hydroxypropylcellulose) (HPC) 90 % of control

Clc1ccc2c(c1)Nc1ccccc1S2
inactive: [1] 88 % of control | [2] 94 % of control | [3] 95 % of control | [4] 98 % of control | [5] 96 % of control | [6] 100 % of control

CC1CCCC(C)(C)C1NCc1cc(Br)cc(Br)c1O (configuration not stated)
inactive: [1] 107 % of control | [5] 88 % of control

Cc1ccc(S(=O)(=O)N(C)CCC(C)C(=O)NN(C)c2ccccc2)cc1 (configuration not stated)
inactive: [7] 95 % of control | [8] 89 % of control | [9] 90 % of control

O=C1C(F)=C(N2CC2)C(=O)C(F)=C1N1CC1
inactive: dose: 0.39 mg/kg/injection, schedule: Q01DX009 (ip), vehicle: Klucel (hydroxypropylcellulose) (HPC) 104 % of control | dose: 0.78 mg/kg/injection, schedule: Q01DX009 (ip), vehicle: Klucel (hydroxypropylcellulose) (HPC) 100 % of control | dose: 0.78 mg/kg/injection, schedule: Q04DX003 (ip), vehicle: alcohol 113 % of control | dose: 1.56 mg/kg/injection, schedule: Q01DX009 (ip), vehicle: Klucel (hydroxypropylcellulose) (HPC) 116 % of control | dose: 1.56 mg/kg/injection, schedule: Q04DX003 (ip), vehicle: alcohol 105 % of control | dose: 3.12 mg/kg/injection, schedule: Q01DX009 (ip), vehicle: Klucel (hydroxypropylcellulose) (HPC) 102 % of control | dose: 3.12 mg/kg/injection, schedule: Q04DX003 (ip), vehicle: alcohol 105 % of control | dose: 6.25 mg/kg/injection, schedule: Q01DX009 (ip), vehicle: Klucel (hydroxypropylcellulose) (HPC) 93 % of control | dose: 6.25 mg/kg/injection, schedule: Q04DX003 (ip), vehicle: saline 110 % of control | dose: 9.2 mg/kg/injection, schedule: Q01DX009 (ip), vehicle: Klucel (hydroxypropylcellulose) (HPC) 98 % of control | dose: 14.0 mg/kg/injection, schedule: Q01DX009 (ip), vehicle: Klucel (hydroxypropylcellulose) (HPC) 87 % of control

CCCCNC(=O)C1CCC(CC2CCCCC2)CC1 (configuration not stated)
inactive: [10] 90 % of control | [11] 105 % of control | [12] 94 % of control

CCSC(=O)CC
inactive: [13] 104 % of control | dose: 200.0 mg/kg/injection, schedule: Q04DX003 (ip), vehicle: saline with Tween-80 100 % of control | [14] 95 % of control

C1CC2CCC[N]3C2C(C1)[O][Pb]31[O]C2CCCC3CCC[N]1C32 (configuration not stated)
inactive: dose: 30.0 mg/kg/injection, schedule: Q01DX015 (ip), vehicle: carboxymethylcellulose (CMC) 91 % of control | dose: 60.0 mg/kg/injection, schedule: Q01DX015 (ip), vehicle: carboxymethylcellulose (CMC) 90 % of control | [1] 97 % of control | [2] 95 % of control | [3] 92 % of control | [4] 94 % of control | [6] 98 % of control

Cc1c(-c2ccccc2)sc(/N=C/c2ccc(Cl)c(Cl)c2)c1C#N
inactive: [15] 103 % of control and 104 % of control | [10] 96 % of control and 101 % of control | [16] 103 % of control and 108 % of control | [11] 97 % of control and 104 % of control | [17] 93 % of control and 97 % of control | [12] 104 % of control and 115 % of control

Cc1cc(C)c(NC(=S)NC(=O)c2ccco2)c(C)c1
inactive: [15] 97 % of control | [2] 98 % of control | [16] 93 % of control | [4] 96 % of control | [17] 95 % of control | [6] 102 % of control

CNC[C@@H](O)c1ccc(O)c(O)c1
inactive: dose: 0.1 mg/kg/injection, schedule: Q01DX009 (ip), vehicle: saline 94 % of control | dose: 0.2 mg/kg/injection, schedule: Q01DX001 (ip), vehicle: saline 112 % of control | dose: 0.2 mg/kg/injection, schedule: Q01DX009 (ip), vehicle: saline 109 % of control | dose: 0.31 mg/kg/injection, schedule: Q01DX009 (ip), vehicle: saline 111 % of control | dose: 0.4 mg/kg/injection, schedule: Q01DX001 (ip), vehicle: saline 106 % of control | dose: 0.4 mg/kg/injection, schedule: Q01DX009 (ip), vehicle: saline 102 % of control | dose: 0.4 mg/kg/injection, schedule: Q04DX003 (ip), vehicle: saline 108 % of control | dose: 0.59 mg/kg/injection, schedule: Q01DX009 (ip), vehicle: saline 95 % of control | dose: 0.62 mg/kg/injection, schedule: Q01DX009 (ip), vehicle: saline 98 % of control | dose: 0.8 mg/kg/injection, schedule: Q01DX001 (ip), vehicle: saline 104 % of control | dose: 0.8 mg/kg/injection, schedule: Q04DX003 (ip), vehicle: saline 113 % of control | dose: 0.9 mg/kg/injection, schedule: Q01DX009 (ip), vehicle: saline 97 % of control | dose: 1.1 mg/kg/injection, schedule: Q01DX001 (ip), vehicle: saline 96 % of control | dose: 1.25 mg/kg/injection, schedule: Q01DX009 (ip), vehicle: saline 101 % of control | dose: 1.3 mg/kg/injection, schedule: Q01DX009 (ip), vehicle: saline 97 % of control | dose: 1.6 mg/kg/injection, schedule: Q04DX003 (ip), vehicle: saline 98 % of control | dose: 2.3 mg/kg/injection, schedule: Q04DX003 (ip), vehicle: saline 103 % of control | dose: 2.5 mg/kg/injection, schedule: Q01DX009 (ip), vehicle: saline 102 % of control | dose: 3.6 mg/kg/injection, schedule: Q04DX003 (ip), vehicle: saline 109 % of control

CCc1ccccc1N=Nc1sc(N)nc1C
inactive: [7] 94 % of control | [8] 100 % of control | [9] 97 % of control

COc1cccc(C(=O)O)c1O
inactive: dose: 75.0 mg/kg/injection, schedule: Q01DX001 (ip), vehicle: acetone 101 % of control | dose: 150.0 mg/kg/injection, schedule: Q01DX001 (ip), vehicle: acetone 98 % of control

Cc1cc(=O)n(C)c2ccccc12
inactive: dose: 50.0 mg/kg/injection, schedule: Q01DX009 (ip), vehicle: saline with Tween-80 97 % of control | [18] 93 % of control | [1] 104 % of control | [15] 101 % of control | [19] 93 % of control | [3] 93 % of control | [16] 94 % of control

Cc1ccc(Cl)cc1N=Cc1ccccc1O
inactive: [13] 94 % of control | [14] 98 % of control

CCOC(=O)CN1CCC(C(=O)OCC)CC1
inactive: dose: 50.0 mg/kg/injection, schedule: Q01DX001 (ip), vehicle: carboxymethylcellulose (CMC) 106 % of control | [18] 97 % of control | [19] 103 % of control | dose: 400.0 mg/kg/injection, schedule: Q01DX001 (ip), vehicle: carboxymethylcellulose (CMC) 106 % of control
